Patent US20230149336A1, “PREPARATION FOR USE AS ANTIOXIDANT” (Evonik Operations GmbH, priority 2020, published 2023)
“Also recorded” adds a separate entry of the source.

Tests used:
mice mesenteric arteries [1] = assay: Vascular reactivity: vasorelaxation of phenylephrine-precontracted mice mesenteric arteries; assay type: cell-based; settings: increasing doses (5-300 μg/mL), phenylephrine-precontracted vessels
Procedure: Second-order branches of the mesenteric arterial tree were removed from mice to perform vascular studies. […] First, an analysis of vascular reactivity curves was performed.

mice mesenteric arteries [2] = assay: Angiotensin II-induced ROS formation (DHE, DHR123); assay type: cell-based; settings: 50 μg/mL for 1 hour, then Angiotensin II 15 minutes; DHE and DHR123; mixtures ratio 1:1
Procedure: Dihydroethidium (DHE, Life Technologies) was used to evaluate production of reactive oxygen species (ROS) in mouse mesenteric arteries, as previously described. Briefly, vessels were incubated with 5 μM of DHE for 20 min and subsequently observed under a fluorescence microscope (Zeiss). Images were acquired by a digital camera system (Olympus Soft Imaging Solutions). […] After treatment, vessels were incubated with Krebs solution containing 5 μM DHR123 for 30 min at 37° C., and then washed two times with PBS prior to fluorescence measurement using a fluorescence microplate reader (TECAN infinite 200 Pro).
To investigate the capability of Healthberry 865® and the single anthocyanins contained on the modulation of oxidative stress, several methodological approaches were performed measuring both, total anti reactive oxygen species (ROS) capacity and their specific action on the modulation of the main machinery of ROS production, the activity of NADPH oxidase enzyme. […] The antioxidant vascular actions of single anthocyanins contained in Healthberry 865®: Delphinidin-3-rutinoside (D3-rut), Cyanidin-3-rutinoside (C3-rut), Delphinidin glucoside (DP3-glu), Cyanidin-3-glucoside (C3-glu), Petunidin-3-glucoside (PT3-glu), Delphinidin galactoside (DP3-gal), Peonidin-3-galactoside (PEO3-gal), Delphinidin-3-arabinoside (DP3-ara), Malvidin-3-galactoside (MAL3-gal), Malvidin-3-glucoside (MAL3-glu), Cyanidin-3-galactoside (C3-gal) and Cyanidin-3-arabinopyranoside (C3-arapy) were analyzed.
(§1) Vessels were pre-treated with single anthocyanins (50 μg/mL) for 1 hours and then stimulated with Angiotensin II for 15 minutes prior to the acquisition. (A) Measurement of ROS production by DHR123 in vessels treated with single anthocyanins and combination of anthocyanins mixed with a ratio 1:1. (B) NADPH oxidase activity in mesenteric arteries exposed to HB or single anthocyanins or combination of anthocyanins mixed with a ratio 1:1. Data are expressed as increase of chemiluminescence per minute.

NADPH oxidase (NOX) = assay: NADPH oxidase activity after stimulation with Angiotensin II; assay type: cell-based, mice; settings: chemiluminescence per minute, mixtures ratio 1:1
Procedure: Moreover, the analysis of NADPH oxidase (NOX) activity after stimulation with Angiotensin II, a gold-standard inducer of NOX activation was performed.
as §1

Compound | vasorelaxant action (mice mesenteric arteries [1]) | Angiotensin II-induced ROS formation (mice mesenteric arteries [2]) | NADPH oxidase (NOX) activity (NADPH oxidase (NOX))
NCCCC[C@H](N)C(=O)O [L-Lysine] | did not evoke any vasorelaxant effect |  | 
COc1cc(-c2[o+]c3cc(O)cc(O)c3cc2O[C@@H]2O[C@H](CO)[C@H](O)[C@H](O)[C@H]2O)cc(OC)c1O [MAL3-gal, Malvidin-3-galactoside] |  | able to reproduce the antioxidant action of Healthberry 865® | able to reduce NOX activity
OC[C@H]1O[C@@H](Oc2cc3c(O)cc(O)cc3[o+]c2-c2ccc(O)c(O)c2)[C@H](O)[C@@H](O)[C@@H]1O [C3-glu, Cyanidin-3-glucoside] |  | able to reproduce the antioxidant action of Healthberry 865® | able to reduce NOX activity; also recorded: the most powerful anthocyanins closer to the potent effect of Healthberry 865®
OC[C@H]1O[C@@H](Oc2cc3c(O)cc(O)cc3[o+]c2-c2cc(O)c(O)c(O)c2)[C@H](O)[C@@H](O)[C@@H]1O [DP3-glu, Delphinidin-3-glucoside] |  | able to reproduce the antioxidant action of Healthberry 865® | able to reduce NOX activity
C[C@@H]1O[C@@H](OC[C@H]2O[C@@H](Oc3cc4c(O)cc(O)cc4[o+]c3-c3ccc(O)c(O)c3)[C@H](O)[C@@H](O)[C@@H]2O)[C@H](O)[C@H](O)[C@H]1O [C3-rut, Cyanidin-3-rutinoside] |  | able to reproduce the antioxidant action of Healthberry 865® | able to reduce NOX activity
Peonidin-3-galactoside [PEO3-gal] |  | able to reproduce the antioxidant action of Healthberry 865® | able to reduce NOX activity
COc1cc(-c2[o+]c3cc(O)cc(O)c3cc2O[C@@H]2O[C@H](CO)[C@@H](O)[C@H](O)[C@H]2O)cc(OC)c1O [MAL3-glu, Malvidin-3-glucoside] |  | able to reproduce the antioxidant action of Healthberry 865® | able to reduce NOX activity; also recorded: the most powerful anthocyanins closer to the potent effect of Healthberry 865®
